This note sets out measurements from patent US20250243171A1, “QUINAZOLINE COMPOUNDS FOR TREATMENT OF DISEASE” (Arthrosi Therapeutics, Inc., priority 2021, published 2025).

A word on the EC50: it is the concentration needed to bring the measured effect to its halfway point. A low value points to a more potent agent.

Common to all, as to experiment: EC50 assay: Ba/F3 stable cell proliferation (CCK-8, 72 h)
What all share (format): cell-based

Assay [1] has as its target T1, Ba/F3 stable cells (Homo sapiens, UniProt P00533, DUP767-769, cells depend on it).
T1 construct: EC50 Ba/F3-EGFR V769-D770insASV; other: Ba/F3-EGFR V769-D770insASV cells, 72 h, CCK-8
The note with it: Ba/F3-EGFR V769-D770insASV cells. Put shortly:
(§1)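 Ba/F3 stable cells were seeded at 4,000 cells/90 μL/well in 96-well plates and held 2 h at 37° C. in 5% CO2, then given 10 μL of serially titrated compound (0.1% DMSO final). After 72 h at 37° C., CCK-8 reagent was added for 4 hours and absorbance read at 450 nm to derive EC50.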

The target in assay [2] is T2, Ba/F3 stable cells (Homo sapiens, UniProt P00533, DUP768-770, cells depend on it).
T2 construct: EC50 Ba/F3-EGFR D770-N771insSVD; other: Ba/F3-EGFR D770-N771insSVD cells, 72 h, CCK-8
T2 sequence (P00533 with tags, fused parts or gaps DUP768-770): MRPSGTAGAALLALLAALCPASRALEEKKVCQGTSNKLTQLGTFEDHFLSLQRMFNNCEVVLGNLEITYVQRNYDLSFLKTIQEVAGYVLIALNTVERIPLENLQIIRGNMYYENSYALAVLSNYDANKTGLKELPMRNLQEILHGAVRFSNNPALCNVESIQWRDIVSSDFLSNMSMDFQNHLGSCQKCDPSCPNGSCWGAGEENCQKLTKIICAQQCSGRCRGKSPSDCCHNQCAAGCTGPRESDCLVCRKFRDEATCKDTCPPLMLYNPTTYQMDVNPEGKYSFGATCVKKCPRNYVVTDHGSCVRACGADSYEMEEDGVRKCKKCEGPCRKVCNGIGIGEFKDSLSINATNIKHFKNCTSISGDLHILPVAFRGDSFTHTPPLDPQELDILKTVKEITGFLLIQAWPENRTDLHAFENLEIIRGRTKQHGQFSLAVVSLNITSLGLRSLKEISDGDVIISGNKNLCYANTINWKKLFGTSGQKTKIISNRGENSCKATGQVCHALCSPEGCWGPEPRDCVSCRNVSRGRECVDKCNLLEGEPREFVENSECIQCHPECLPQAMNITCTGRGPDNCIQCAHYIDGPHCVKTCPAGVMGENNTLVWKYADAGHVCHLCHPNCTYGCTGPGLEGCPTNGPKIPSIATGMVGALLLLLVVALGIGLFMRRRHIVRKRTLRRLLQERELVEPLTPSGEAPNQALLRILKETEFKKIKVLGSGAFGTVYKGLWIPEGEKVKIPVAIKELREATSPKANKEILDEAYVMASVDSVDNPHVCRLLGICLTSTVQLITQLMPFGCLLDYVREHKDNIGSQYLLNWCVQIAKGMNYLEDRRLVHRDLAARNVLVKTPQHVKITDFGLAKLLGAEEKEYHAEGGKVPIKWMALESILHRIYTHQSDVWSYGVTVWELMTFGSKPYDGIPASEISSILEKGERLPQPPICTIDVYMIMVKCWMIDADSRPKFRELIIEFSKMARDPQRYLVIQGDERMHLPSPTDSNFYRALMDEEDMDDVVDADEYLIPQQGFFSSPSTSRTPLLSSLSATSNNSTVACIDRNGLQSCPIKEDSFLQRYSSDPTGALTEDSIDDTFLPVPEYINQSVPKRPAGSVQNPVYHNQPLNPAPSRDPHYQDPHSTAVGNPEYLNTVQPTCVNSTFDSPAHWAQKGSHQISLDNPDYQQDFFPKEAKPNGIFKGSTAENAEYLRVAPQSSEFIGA
The note with it: Ba/F3-EGFR D770-N771insSVD cells. Put shortly: as §1

Assay [3] has as its target T3, Ba/F3 stable cells (Homo sapiens, UniProt P00533, DUP771-773, cells depend on it).
T3 construct: EC50 Ba/F3-EGFR H773-V774insNPH; other: Ba/F3-EGFR H773-V774insNPH cells, 72 h, CCK-8
The note with it: Ba/F3-EGFR H773-V774insNPH cells. Put shortly: as §1

The target in assay [4] is T4, Ba/F3 stable cells (Homo sapiens, UniProt P00533, INS763FQEA, cells depend on it).
T4 construct: EC50 Ba/F3-EGFR A763-Y764insFQEA; other: Ba/F3-EGFR A763-Y764insFQEA cells, 72 h, CCK-8
T4 sequence (P00533 with tags, fused parts or gaps INS763FQEA): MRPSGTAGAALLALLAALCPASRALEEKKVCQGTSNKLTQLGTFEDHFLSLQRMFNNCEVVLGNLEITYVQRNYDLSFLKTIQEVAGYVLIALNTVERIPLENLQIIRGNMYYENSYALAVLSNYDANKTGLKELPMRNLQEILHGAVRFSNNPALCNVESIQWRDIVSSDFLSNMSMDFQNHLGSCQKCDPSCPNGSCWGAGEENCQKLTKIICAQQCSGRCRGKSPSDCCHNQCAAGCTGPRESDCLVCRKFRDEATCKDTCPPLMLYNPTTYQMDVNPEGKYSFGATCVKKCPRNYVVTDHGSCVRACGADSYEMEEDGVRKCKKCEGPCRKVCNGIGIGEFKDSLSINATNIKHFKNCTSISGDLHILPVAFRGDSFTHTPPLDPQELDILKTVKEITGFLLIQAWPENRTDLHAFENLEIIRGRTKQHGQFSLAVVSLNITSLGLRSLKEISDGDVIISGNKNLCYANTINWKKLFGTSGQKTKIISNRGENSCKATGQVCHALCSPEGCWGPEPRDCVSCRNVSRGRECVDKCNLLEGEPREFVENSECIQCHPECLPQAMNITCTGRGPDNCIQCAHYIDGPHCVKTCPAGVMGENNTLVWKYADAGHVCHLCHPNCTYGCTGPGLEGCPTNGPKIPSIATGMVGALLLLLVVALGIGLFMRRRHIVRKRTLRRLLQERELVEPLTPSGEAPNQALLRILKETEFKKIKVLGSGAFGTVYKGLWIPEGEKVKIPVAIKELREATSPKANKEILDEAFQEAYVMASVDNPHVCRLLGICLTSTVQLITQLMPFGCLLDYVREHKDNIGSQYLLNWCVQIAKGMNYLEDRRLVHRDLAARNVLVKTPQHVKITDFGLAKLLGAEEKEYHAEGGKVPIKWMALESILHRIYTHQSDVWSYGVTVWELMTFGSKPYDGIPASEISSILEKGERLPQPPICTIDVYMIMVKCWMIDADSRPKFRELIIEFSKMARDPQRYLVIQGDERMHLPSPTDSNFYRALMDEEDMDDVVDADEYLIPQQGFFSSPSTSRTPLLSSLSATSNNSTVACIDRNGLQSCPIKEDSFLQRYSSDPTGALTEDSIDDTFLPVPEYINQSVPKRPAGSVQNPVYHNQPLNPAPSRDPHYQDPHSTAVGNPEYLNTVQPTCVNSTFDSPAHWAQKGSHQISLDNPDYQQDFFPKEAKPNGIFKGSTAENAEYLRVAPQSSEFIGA
The note with it: Ba/F3-EGFR A763-Y764insFQEA cells. In short, it runs like this: as §1

The target of assay [5] is T5, Ba/F3 stable cells (Homo sapiens, UniProt P00533, T790M/L858R, cells depend on it).
T5 construct: EC50 Ba/F3-EGFR L858R-T790M; other: Ba/F3-EGFR L858R-T790M cells, 72 h, CCK-8
T5 sequence (P00533 whole entry T790M/L858R): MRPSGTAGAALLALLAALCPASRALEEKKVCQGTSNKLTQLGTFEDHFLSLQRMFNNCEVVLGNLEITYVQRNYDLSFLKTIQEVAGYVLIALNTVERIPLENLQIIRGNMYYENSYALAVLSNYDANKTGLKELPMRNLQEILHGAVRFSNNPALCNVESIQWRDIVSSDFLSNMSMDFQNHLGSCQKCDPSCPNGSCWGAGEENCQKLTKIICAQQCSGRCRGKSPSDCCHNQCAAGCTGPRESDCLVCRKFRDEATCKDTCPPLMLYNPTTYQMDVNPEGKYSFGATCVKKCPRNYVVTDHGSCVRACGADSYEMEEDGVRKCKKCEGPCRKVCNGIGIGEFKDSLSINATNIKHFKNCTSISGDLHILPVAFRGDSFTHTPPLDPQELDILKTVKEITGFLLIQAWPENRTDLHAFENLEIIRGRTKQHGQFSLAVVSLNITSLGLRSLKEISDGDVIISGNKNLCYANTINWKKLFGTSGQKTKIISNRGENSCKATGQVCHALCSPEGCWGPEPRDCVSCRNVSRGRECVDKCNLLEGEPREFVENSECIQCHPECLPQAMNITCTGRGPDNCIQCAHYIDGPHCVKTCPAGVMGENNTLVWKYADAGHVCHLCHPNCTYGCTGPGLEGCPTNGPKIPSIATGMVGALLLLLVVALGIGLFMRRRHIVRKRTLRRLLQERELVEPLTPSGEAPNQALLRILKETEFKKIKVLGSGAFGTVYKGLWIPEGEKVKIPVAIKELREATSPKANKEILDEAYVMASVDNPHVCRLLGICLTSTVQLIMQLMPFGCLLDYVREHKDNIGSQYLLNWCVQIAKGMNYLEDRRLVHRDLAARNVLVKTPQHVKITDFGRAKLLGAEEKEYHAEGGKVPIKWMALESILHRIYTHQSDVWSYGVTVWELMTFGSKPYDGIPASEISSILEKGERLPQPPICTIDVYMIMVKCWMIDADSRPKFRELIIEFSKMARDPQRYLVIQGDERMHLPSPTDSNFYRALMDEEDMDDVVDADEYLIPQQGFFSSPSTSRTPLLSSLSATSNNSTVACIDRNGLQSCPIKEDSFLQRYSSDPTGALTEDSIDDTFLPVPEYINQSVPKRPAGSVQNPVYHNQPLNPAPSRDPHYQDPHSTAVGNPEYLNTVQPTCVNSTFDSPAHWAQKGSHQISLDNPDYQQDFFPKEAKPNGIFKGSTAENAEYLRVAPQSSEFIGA
The note with it: Ba/F3-EGFR L858R-T790M cells. In short, it runs like this: as §1

Assay [6] has as its target T6, Ba/F3 stable cells (Homo sapiens, UniProt P04626, DUP772-775, cells depend on it).
T6 construct: EC50 Ba/F3-HER2 A775-G776insYVMA; other: Ba/F3-HER2 A775-G776insYVMA cells, 72 h, CCK-8
The note with it: Ba/F3-HER2 A775-G776insYVMA cells. Put shortly:
as §1

Bounds are passed on as bounds.

T3 sequence (P00533 with tags, fused parts or gaps DUP771-773): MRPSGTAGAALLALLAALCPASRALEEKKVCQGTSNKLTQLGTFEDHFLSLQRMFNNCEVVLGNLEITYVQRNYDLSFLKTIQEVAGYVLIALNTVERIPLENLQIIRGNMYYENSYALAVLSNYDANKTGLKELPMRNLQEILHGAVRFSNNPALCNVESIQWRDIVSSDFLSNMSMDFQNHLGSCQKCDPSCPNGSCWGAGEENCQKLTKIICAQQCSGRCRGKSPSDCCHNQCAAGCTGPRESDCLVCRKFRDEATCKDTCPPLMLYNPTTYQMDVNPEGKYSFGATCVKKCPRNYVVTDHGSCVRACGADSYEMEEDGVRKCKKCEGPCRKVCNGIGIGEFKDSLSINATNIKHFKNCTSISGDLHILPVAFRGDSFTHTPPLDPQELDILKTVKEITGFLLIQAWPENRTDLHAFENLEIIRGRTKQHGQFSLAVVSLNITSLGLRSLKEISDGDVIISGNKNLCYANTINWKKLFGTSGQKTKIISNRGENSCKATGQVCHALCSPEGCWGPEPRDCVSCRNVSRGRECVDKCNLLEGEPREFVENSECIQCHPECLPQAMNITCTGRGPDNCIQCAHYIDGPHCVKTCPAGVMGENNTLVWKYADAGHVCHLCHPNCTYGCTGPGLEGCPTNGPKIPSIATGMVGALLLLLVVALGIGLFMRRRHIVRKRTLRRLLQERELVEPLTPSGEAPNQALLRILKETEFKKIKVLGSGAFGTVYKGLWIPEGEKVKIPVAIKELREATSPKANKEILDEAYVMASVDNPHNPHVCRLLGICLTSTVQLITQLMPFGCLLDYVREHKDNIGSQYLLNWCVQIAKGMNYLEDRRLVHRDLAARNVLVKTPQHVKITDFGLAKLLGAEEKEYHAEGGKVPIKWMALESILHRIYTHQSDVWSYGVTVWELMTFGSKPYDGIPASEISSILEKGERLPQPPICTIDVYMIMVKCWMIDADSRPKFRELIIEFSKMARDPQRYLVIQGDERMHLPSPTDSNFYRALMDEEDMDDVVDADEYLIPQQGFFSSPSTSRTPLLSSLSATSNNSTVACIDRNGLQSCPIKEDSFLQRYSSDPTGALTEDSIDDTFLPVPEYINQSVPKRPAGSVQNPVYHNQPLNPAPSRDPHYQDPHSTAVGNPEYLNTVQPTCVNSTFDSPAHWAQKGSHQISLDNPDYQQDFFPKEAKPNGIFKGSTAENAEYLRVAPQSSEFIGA

Take `C=CC(=O)N1CCC(Oc2cc3c(Nc4cc5ccccc5cn4)ncnc3cc2OC)CC1` [Compound 159, 1-(4-((4-(isoquinolin-3-ylamino)-7-methoxyquinazolin-6-yl)oxy)piperidin-1-yl)prop-2-en-1-one]: the 50% effective concentration (EC50) in assay [1] is 200 to 1000 nM; in assay [2], over 1000 nM; in assay [3], 200 to 1000 nM; in assay [4] it was at most 200 nM; in assay [5], 200 to 1000 nM; in assay [6] it was 200 to 1000 nM.

For `C=CC(=O)N1CCC(Oc2cc3c(Nc4ccc5ccccc5c4Cl)ncnc3cc2OC)CC1` [Compound 160, 1-(4-((4-((1-chloronaphthalen-2-yl)amino)-7-methoxyquinazolin-6-yl)oxy)piperidin-1-yl)prop-2-en-1-one], the half-maximal effective concentration (EC50) was at most 200 nM in assay [1]; over 1000 nM in assay [2]; 200 to 1000 nM in assay [3]; at most 200 nM in assay [4]; 200 to 1000 nM in assay [5]; over 1000 nM in assay [6].

On to `C=CC(=O)N1CCC(Oc2cc3c(Nc4nccc5ccccc45)ncnc3cc2OC)CC1` [Compound 161, 1-(4-((4-(isoquinolin-1-ylamino)-7-methoxyquinazolin-6-yl)oxy)piperidin-1-yl)prop-2-en-1-one], for which the concentration for a half-maximal effect (EC50) in assay [1] is 200 to 1000 nM; in assay [2] it was over 1000 nM; in assay [3], 200 to 1000 nM; in assay [4], at most 200 nM; in assay [5], 200 to 1000 nM; in assay [6], over 1000 nM.

As for `C=CC(=O)N1CCC(Oc2cc3c(Nc4ccnc5ccccc45)ncnc3cc2OC)CC1` [Compound 162, 1-(4-((7-methoxy-4-(quinolin-4-ylamino)quinazolin-6-yl)oxy)piperidin-1-yl)prop-2-en-1-one], the EC50 was at most 200 nM in assay [1]; over 1000 nM in assay [2]; 200 to 1000 nM in assay [3]; at most 200 nM in assay [4]; at most 200 nM in assay [5]; 200 to 1000 nM in assay [6].

On to `C=CC(=O)N1CCC(Oc2cc3c(Nc4ccc(Cl)c5ccccc45)ncnc3cc2OC)CC1` [Compound 164, 1-(4-((4-((4-chloronaphthalen-1-yl)amino)-7-methoxyquinazolin-6-yl)oxy)piperidin-1-yl)prop-2-en-1-one], for which the EC50 in assay [1] is at most 200 nM; in assay [2], 200 to 1000 nM; in assay [3] it was 200 to 1000 nM; in assay [4], at most 200 nM; in assay [5] it was at most 200 nM; in assay [6], 200 to 1000 nM.

On to `C=CC(=O)N1CCC(Oc2cc3c(Nc4cccc5[nH]ccc45)ncnc3cc2OC)CC1` [Compound 165, 1-(4-((4-((1H-indol-4-yl)amino)-7-methoxyquinazolin-6-yl)oxy)piperidin-1-yl)prop-2-en-1-one], for which the half-maximal effective concentration (EC50) in assay [1] is 200 to 1000 nM; in assay [2], over 1000 nM; in assay [3] it was 200 to 1000 nM; in assay [4], at most 200 nM; in assay [5], 200 to 1000 nM; in assay [6] it was over 1000 nM.

As to `C=CC(=O)N1CCC(Oc2cc3c(Nc4cccc5cc[nH]c45)ncnc3cc2OC)CC1` [Compound 166, 1-(4-((4-((1H-indol-7-yl)amino)-7-methoxyquinazolin-6-yl)oxy)piperidin-1-yl)prop-2-en-1-one], the concentration giving a half-maximal response (EC50) was at most 200 nM in assay [1]; over 1000 nM in assay [2]; at most 200 nM in assay [3]; at most 200 nM in assay [4]; 200 to 1000 nM in assay [5]; at most 200 nM in assay [6].

For the compound `C=CC(=O)N1CCC(Oc2cc3c(Nc4ccc(C)c5ccccc45)ncnc3cc2OC)CC1` [Compound 167, 1-(4-((7-methoxy-4-((4-methylnaphthalen-1-yl)amino)quinazolin-6-yl)oxy)piperidin-1-yl)prop-2-en-1-one], the concentration giving a half-maximal response (EC50) in assay [1] was 200 to 1000 nM; in assay [2] it was over 1000 nM; in assay [3], 200 to 1000 nM; in assay [4] it was at most 200 nM; in assay [5], at most 200 nM; in assay [6], 200 to 1000 nM.

Take `C=CC(=O)N1CCC(Oc2cc3c(Nc4ccc5c(c4)CCN5)ncnc3cc2OC)CC1` [Compound 168, 1-(4-((4-(indolin-5-ylamino)-7-methoxyquinazolin-6-yl)oxy)piperidin-1-yl)prop-2-en-1-one]: the EC50 in assay [1] is at most 200 nM; in assay [2] it was 200 to 1000 nM; in assay [3], at most 200 nM; in assay [4], at most 200 nM; in assay [5], over 1000 nM; in assay [6], at most 200 nM.

Turning to `C=CC(=O)N1CCC(Oc2cc3c(Nc4ccc5[nH]ccc5c4)ncnc3cc2OC)CC1` [Compound 169, 1-(4-((4-((1H-indol-5-yl)amino)-7-methoxyquinazolin-6-yl)oxy)piperidin-1-yl)prop-2-en-1-one], the concentration giving a half-maximal response (EC50) in assay [1] was at most 200 nM; in assay [2], 200 to 1000 nM; in assay [3], at most 200 nM; in assay [4], at most 200 nM; in assay [5], 200 to 1000 nM; in assay [6], at most 200 nM.

As for `C=CC(=O)N1CCC(Oc2cc3c(Nc4ccc5c(ccn5C)c4)ncnc3cc2OC)CC1` [Compound 170, 1-(4-((7-methoxy-4-((1-methyl-1H-indol-5-yl)amino)quinazolin-6-yl)oxy)piperidin-1-yl)prop-2-en-1-one], the concentration giving a half-maximal response (EC50) in assay [1] was 200 to 1000 nM; in assay [2], over 1000 nM; in assay [3], 200 to 1000 nM; in assay [4], at most 200 nM; in assay [5], at most 200 nM; in assay [6], 200 to 1000 nM.

`C=CC(=O)N1CCC(Oc2cc3c(NCc4ccc(F)cc4)ncnc3cc2OC)CC1` [Compound 172, 1-(4-((4-((4-fluorobenzyl)amino)-7-methoxyquinazolin-6-yl)oxy)piperidin-1-yl)prop-2-en-1-one]: the concentration giving a half-maximal response (EC50) in assay [1] is at most 200 nM; in assay [2] it was 200 to 1000 nM; in assay [3] it was 200 to 1000 nM; in assay [4], at most 200 nM; in assay [5], over 1000 nM; in assay [6] it was at most 200 nM.

As for `C=CC(=O)N1CCC(Oc2cc3c(N[C@H](C)c4ccc(F)cc4)ncnc3cc2OC)CC1` [Compound 173, (R)-1-(4-((4-((1-(4-fluorophenyl)ethyl)amino)-7-methoxyquinazolin-6-yl)oxy)piperidin-1-yl)prop-2-en-1-one], the half-maximal effective concentration (EC50) in assay [1] was at most 200 nM; in assay [2] it was over 1000 nM; in assay [3], 200 to 1000 nM; in assay [4], at most 200 nM; in assay [5], over 1000 nM; in assay [6], over 1000 nM.

On to `C=CC(=O)N1CCC(Oc2cc3c(C(=O)c4ccc(OC)cc4)ncnc3cc2OC)CC1` [Compound 174, 1-(4-((7-methoxy-4-(4-methoxybenzoyl)quinazolin-6-yl)oxy)piperidin-1-yl)prop-2-en-1-one], for which the EC50 in assay [1], in assay [2], in assay [3], in assay [4], in assay [5] and in assay [6] was over 1000 nM each time.

In the case of `C=CC(=O)N1CCC(Oc2cc3c(C(=O)c4ccc(Cl)c(Cl)c4F)ncnc3cc2OC)CC1` [Compound 175, 1-(4-((4-(3,4-dichloro-2-fluorobenzoyl)-7-methoxyquinazolin-6-yl)oxy)piperidin-1-yl)prop-2-en-1-one], the 50% effective concentration (EC50) in assay [1] was at most 200 nM; in assay [2] it was 200 to 1000 nM; in assay [3], at most 200 nM; in assay [4], at most 200 nM; in assay [5], 200 to 1000 nM; in assay [6], 200 to 1000 nM.

On to `C=CC(=O)N1C2CCCC1CC(Oc1cc3c(Nc4ccc(Cl)c(Cl)c4F)ncnc3cc1OC)C2` (stereo not drawn) [Compound 176, 1-(3-((4-((3,4-dichloro-2-fluorophenyl)amino)-7-methoxyquinazolin-6-yl)oxy)-9-azabicyclo[3.3.1]nonan-9-yl)prop-2-en-1-one], for which the EC50 in assay [1], in assay [2], in assay [3], in assay [4], in assay [5] and in assay [6] was at most 200 nM each time.

Take `C=CC(=O)N1C2CCC1CC(Oc1cc3c(Nc4ccc(Cl)c(Cl)c4F)ncnc3cc1OC)C2` (stereo not drawn) [Compound 177, 1-(3-((4-((3,4-dichloro-2-fluorophenyl)amino)-7-methoxyquinazolin-6-yl)oxy)-8-azabicyclo[3.2.1]octan-8-yl)prop-2-en-1-one]: the concentration for a half-maximal effect (EC50) in assay [1], in assay [2], in assay [3], in assay [4], in assay [5] and in assay [6] was at most 200 nM in each case.
